Here are results for one molecule from ChEMBL document CHEMBL2073984, “Nonlinear oral pharmacokinetics of the alpha-antagonist 4-amino-5-(4-fluorophenyl)-6,7-dimethoxy-2-[4-(morpholinocarbonyl)-perhydro-1,4-diazepin-1-yl]quinoline in humans: use of preclinical data to rationalize clinical observations” (Drug Metab Dispos, 2004).

In the data set the target is ATP-dependent translocase ABCB1 (Homo sapiens, UniProt P08183). Briefly: TP_TRANSPORTER: transepithelial transport in Caco2 cells. It is filed as functional, cell-based. To be noted: caco-2. On the technique in general: Caco-2 monolayers are a common model of the intestinal barrier.
Chain of ATP-dependent translocase ABCB1 (P08183 whole entry): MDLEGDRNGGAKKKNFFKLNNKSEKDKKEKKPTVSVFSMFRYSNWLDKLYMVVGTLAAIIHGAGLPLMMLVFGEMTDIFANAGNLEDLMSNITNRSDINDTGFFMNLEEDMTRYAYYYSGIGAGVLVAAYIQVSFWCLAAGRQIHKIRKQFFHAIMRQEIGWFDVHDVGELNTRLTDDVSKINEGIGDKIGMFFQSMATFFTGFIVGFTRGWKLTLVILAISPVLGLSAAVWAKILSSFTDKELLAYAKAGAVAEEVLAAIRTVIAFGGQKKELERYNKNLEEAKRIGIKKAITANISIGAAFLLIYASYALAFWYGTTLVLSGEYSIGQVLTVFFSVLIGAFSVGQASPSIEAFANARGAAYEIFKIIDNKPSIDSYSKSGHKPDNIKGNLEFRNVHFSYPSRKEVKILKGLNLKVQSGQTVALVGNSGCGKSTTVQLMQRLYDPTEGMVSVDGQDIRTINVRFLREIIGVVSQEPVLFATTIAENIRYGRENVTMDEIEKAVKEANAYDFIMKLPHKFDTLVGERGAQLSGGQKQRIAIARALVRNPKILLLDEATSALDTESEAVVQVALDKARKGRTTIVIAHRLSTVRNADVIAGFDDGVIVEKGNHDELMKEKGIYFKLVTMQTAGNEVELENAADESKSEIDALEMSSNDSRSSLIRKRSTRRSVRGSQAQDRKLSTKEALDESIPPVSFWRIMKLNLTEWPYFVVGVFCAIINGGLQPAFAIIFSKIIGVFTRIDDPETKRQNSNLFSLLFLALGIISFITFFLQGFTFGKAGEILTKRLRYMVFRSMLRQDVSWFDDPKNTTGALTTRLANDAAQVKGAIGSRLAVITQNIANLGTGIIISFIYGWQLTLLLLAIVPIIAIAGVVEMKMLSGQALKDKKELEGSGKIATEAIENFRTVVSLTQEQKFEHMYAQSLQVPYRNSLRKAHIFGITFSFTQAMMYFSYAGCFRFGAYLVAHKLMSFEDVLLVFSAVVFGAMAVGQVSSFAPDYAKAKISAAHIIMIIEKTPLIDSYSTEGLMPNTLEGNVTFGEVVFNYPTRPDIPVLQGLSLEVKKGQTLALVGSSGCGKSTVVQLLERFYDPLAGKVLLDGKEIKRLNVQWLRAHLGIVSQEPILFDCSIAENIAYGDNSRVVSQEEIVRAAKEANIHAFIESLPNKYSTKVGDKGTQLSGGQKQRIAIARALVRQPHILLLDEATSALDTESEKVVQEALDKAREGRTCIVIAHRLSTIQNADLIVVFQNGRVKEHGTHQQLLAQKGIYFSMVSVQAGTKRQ

In the case of `COc1cc2nc(N3CCCN(C(=O)N4CCOCC4)CC3)cc(N)c2c(-c2ccc(F)cc2)c1OC`, the Activity entry was “substrate [+]”.
